Experimental data: patent US7947690B2, “Pyrimidine derivative condensed with a non-aromatic ring” (Astellas Pharma Inc., priority 2004, dated 2011)
Counter-ions that a name gives are not always drawn.

test system: MIN6B1 cell; experiment: Assay for promoting activity on insulin secretion; type: cell-based, mouse; conditions: 10 μM test compound in KRB-HEPES with 16.8 mM glucose, 37° C., 22 minutes; relative value, insulin concentration for only DMSO = 100%
Protocol: (1) Assay for Promoting Activity on Insulin Secretion
In this assay, promoting activities on insulin secretion of the test compounds were studied using MIN6B1 cell, which was a strain of mouse pancreatic β-cells, and glibenclamide, which was a commercially available insulin secretion secretagogue, as a reference compound. The assay procedure is given below.
MIN6B1 cells were seeded on a 48-well plate at a concentration of 1×10^5 cells/well (0.25 ml) (The medium was prepared by adding FCS (fetal calf serum) to DMEM (Dulbecco's Modified Eagle Medium) containing 25 mM glucose such that the FCS concentration became 10%). After two days, the medium was suctioned by an aspirator, each well was Washed four times with 0.2 ml of KRB-HEPES buffer (Krebs-Ringer-bicarbonate-N-2-hydroxylethylpiperazine-N′-2-ethanesulfonic acid; 130 mM NaCl, 4.7 mM KCl, 1.2 mM KH2PO4, 1.2 mM MgCl2.6H2O, 0.25 mM CaCl2.2H2O, 2.5 mM NaHCO3, 0.5% BSA, and 10 mM N-2-hydroxyethylpiperazine-N′-2-ethanesulfonic acid (pH 7.4)) containing 2.8 mM glucose warmed to 37° C., 0.2 ml of said buffer was again added, and the cells were incubated at 37° C. for 30 to 60 minutes. After the buffer was suctioned by an aspirator, 0.25 ml of a solution containing 10 μM of each test compound in KRB-HEPES containing 16.8 mM glucose was added to each well, and the cells were incubated at 37° C. for 22 minutes. The samples were pipetted and diluted by 25 to 51 times, and the insulin concentrations were analyzed using an insulin assay kit (Rat Insulin [^125I] Biotrak Assay System with Magnetic Separation; Amersham Bioscience K.K.). The test compounds were dissolved in 100% DMSO, and were added at the final concentration of 0.1%. The activity was expressed as a relative value, provided that insulin concentration for only DMSO was 100%.

Row | SMILES | Promotion activity on insulin secretion, %
1 | O=C(CO)NCC1CCN(c2nc(-c3cc(F)c(Cl)cc3F)nc3c2CS(=O)(=O)C3)CC1 [Example 331] | 308%
2 | O=S1(=O)Cc2nc(-c3cc(F)c(Cl)cc3F)nc(N3CCC(O)(CCCO)CC3)c2C1 [Example 272, 1-[2-(4-chloro-2,5-difluorophenyl)-6,6-dioidxo-5,7-dihydrothieno[3,4-d]pyrimidin-4-yl]-4-(3-hydroxypropyl)piperidin-4-ol] | 322%

same assay, conditions: Mus musculus, 22 min, 10 μM test compound in KRB-HEPES with 16.8 mM glucose, 37° C., relative value, insulin concentration for only DMSO = 100%, read-out: Promotion activity on insulin secretion, %

Row | SMILES | activity at 10 µM
3 | C[C@@H]1CCCN(c2nc(-c3cc(F)c(Cl)cc3F)nc3c2CS(=O)(=O)C3)C1 [Example 1, (R)-2-(4-chloro-2,5-difluorophenyl)-4-(3-methylpiperidin-1-yl)-5,7-dihydrothieno[3,4-d]pyrimidine 6,6-dioxide hydrochloride] | 355%
4 | O=C(O)CCCC1CCN(c2nc(C3CCCC3)nc3c2CS(=O)(=O)C3)CC1 [Example 407, 4-[1-(2-cyclopentyl-6,6-dioxido-5,7-dihydrothieno[3,4-d]pyrimidin-4-yl)piperidin-4-yl]butyric acid] | 325%
5 | O=C(O)CCNC1CCN(c2nc(-c3cc(F)c(Cl)cc3F)nc3c2CS(=O)(=O)C3)CC1 [Example 288, 3-({1-[2-(4-chloro-2,5-difluorophenyl)-6,6-dioxido-5,7-dihydrothieno[3,4-d]pyrimidin-4-yl]piperidin-4-yl}amino)propionic acid] | 253%
6 | NC(=O)CCN1CCN(c2nc(-c3cc(F)c(Cl)cc3F)nc3c2CS(=O)(=O)C3)CC1 [Example 269, 3-{4-[2-(4-chloro-2,5-difluorophenyl)-6,6-dioxido-5,7-dihydrothieno[3,4-d]pyrimidin-4-yl]piperazin-1-yl}propanamide] | 212%
7 | O=C(O)CCCC1CCN(c2nc(-c3cc(F)c(Cl)cc3F)nc3c2CS(=O)(=O)C3)CC1 [Example 291, 4-{1-[2-(4-chloro-2,5-difluorophenyl)-6,6-dioxido-5,7-dihydrothieno[3,4-d]pyrimidin-4-yl]piperidin-4-yl}butyric acid] | 269%
8 | O=S1(=O)Cc2nc(-c3cc(F)c(Cl)cc3F)nc(N3CCC(NCCCO)CC3)c2C1 [Example 287, 3-({1-[2-(4-chloro-2,5-difluorophenyl)-6,6-dioxido-5,7-dihydrothieno[3,4-d]pyrimidin-4-yl]piperidin-4-yl}amino)propan-1-ol] | 208%
9 | COc1ccc(Cl)cc1C(=O)NCCc1ccc(S(=O)(=O)NC(=O)NC2CCCCC2)cc1 [Glibenclamide, glibenclamide, reference compound] | 122%
10 | NC(=O)CCC1CCN(c2nc(-c3cc(F)c(Cl)cc3F)nc3c2CS(=O)(=O)C3)CC1 [Example 283, 3-{1-[2-(4-chloro-2,5-difluorophenyl)-6,6-dioxido-5,7-dihydrothieno[3,4-d]pyrimidin-4-yl]piperidin-4-yl}propanamide] | 375%

test system: normal mice; experiment: Oral glucose tolerance test on normal mouse; type: in vivo; conditions: ICR mice, nateglinide 10 mg/kg orally 30 minutes before glucose loading; at 30 minutes after glucose loading, relative to control group
Protocol: (2) Oral Glucose Tolerance Test on Normal Mouse
In this assay, preventive activities of test compounds against hyperglycemia following glucose loading were examined using normal mice and nateglinide, a commercially available oral anti-hyperglycemic agent, as a reference compound. The assay procedure is given below.
ICR mice (male, six weeks old) that had been preliminary bred for one week were fasted for 18 to 20 hours to use as test animals. Each test compound was dissolved in 0.5% methylcellulose solution and orally administered at 3 mg/kg (10 mg/kg for nateglinide) before glucose loading. Timing to administer the test compound was selected to be optimal for each test compound, which was 10 minutes before glucose loading for the compounds of the present invention or 30 minutes before glucose loading for nateglinide, which was a reference compound. The hypoglycemic rate (%) at 30 minutes after glucose loading was measured relative to the control group.

Row | SMILES | Hypoglycemic rate, %
11 | CC(C)[C@H]1CC[C@H](C(=O)N[C@H](Cc2ccccc2)C(=O)O)CC1 [Nateglinide, nateglinide] | 26%
